According to EP4778929A1, “NOVEL TYPE I TOPOISOMERASE INHIBITOR, AND PREPARATION METHOD THEREFOR AND USE THEREOF” (priority 2023, dated 2025):
pIC50: −log10 of the molar value. Like-named read-outs stand apart in the source and are kept apart here.

Legend:
topoisomerase I (Topo I) = target: T1, topoisomerase I (Topo I) (Homo sapiens, UniProt P11387); assay: Topo I enzyme-inhibitory activity by agarose-gel electrophoresis (plasmid relaxation); format: biochemical
T1 sequence (P11387 1-765): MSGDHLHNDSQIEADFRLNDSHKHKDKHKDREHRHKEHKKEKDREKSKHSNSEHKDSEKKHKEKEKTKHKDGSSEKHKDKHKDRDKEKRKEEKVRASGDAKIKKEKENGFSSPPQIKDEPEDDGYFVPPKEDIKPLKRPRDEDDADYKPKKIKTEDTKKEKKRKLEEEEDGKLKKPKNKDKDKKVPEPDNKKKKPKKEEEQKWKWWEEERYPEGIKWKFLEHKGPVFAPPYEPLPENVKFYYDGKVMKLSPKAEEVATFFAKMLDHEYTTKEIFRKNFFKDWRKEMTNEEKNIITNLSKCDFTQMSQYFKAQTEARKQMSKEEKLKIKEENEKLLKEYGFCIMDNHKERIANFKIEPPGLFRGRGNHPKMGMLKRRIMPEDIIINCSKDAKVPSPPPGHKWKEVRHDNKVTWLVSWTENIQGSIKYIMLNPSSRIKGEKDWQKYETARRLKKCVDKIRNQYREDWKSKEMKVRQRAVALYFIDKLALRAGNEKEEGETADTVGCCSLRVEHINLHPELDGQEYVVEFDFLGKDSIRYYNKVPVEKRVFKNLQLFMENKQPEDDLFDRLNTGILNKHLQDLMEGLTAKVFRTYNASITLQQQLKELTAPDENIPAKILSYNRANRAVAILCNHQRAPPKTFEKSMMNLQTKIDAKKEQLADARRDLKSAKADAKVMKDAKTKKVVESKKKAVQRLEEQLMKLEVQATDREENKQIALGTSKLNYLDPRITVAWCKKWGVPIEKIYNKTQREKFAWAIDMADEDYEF
Excerpt: Test Example 1. Determination of Topo I Enzyme-Inhibitory Activity by Agarose-Gel Electrophoresis
Principle: Type-I topoisomerase (Topo I) relaxes positive and negative supercoils by introducing transient single-strand breaks and forming reversible cleavage complexes (Topo I-DNA covalent complexes). Gel electrophoresis can resolve DNA species of identical molecular weight but different topology: supercoiled plasmid migrates fastest, whereas the nicked, relaxed form moves more slowly. Quantifying the decrease in supercoiled DNA therefore provides a direct measure of Topo I activity.
Experimental Procedure: A 1× reaction buffer was prepared (20 mM Tris-HCl pH 7.5, 200 mM NaCl, 0.25 mM EDTA, 5 % (v/v) glycerol, 0.5 µg pNO1 plasmid substrate). Test compounds (5 % DMSO final) were added to the buffer, followed by Topo I enzyme (0.75 U per reaction). After gentle mixing, reactions were incubated at 37 °C for 30 min. Positive (enzyme + vehicle) and negative (no enzyme) controls were included in parallel. Reactions were terminated by adding STEB buffer and chloroform/iso-amyl alcohol (24:1, v/v), vortexed and centrifuged for 2 min. The aqueous (upper) phase was loaded onto a 1 % (w/v) agarose gel, electrophoresed for 1-2 h, stained with GelRed, and imaged under UV trans-illumination.
Data Analysis: Band intensities of supercoiled DNA were quantified with image-analysis software. Relaxation activity (%) was calculated as (Max-Sample)/ (Max-Min)*100%, where Max = intensity of the no-enzyme negative control, Min = intensity of the vehicle-only positive control, and Sample = intensity of the compound-treated lane. Dose-response data (compound concentration, X; relaxation activity %, Y) were fitted in Excel or GraphPad Prism 5.0 using the four-parameter logistic equation: Y=Bottom + (Top-Bottom)/(1+(IC50/X)[…]) to derive the IC50 value for each compound.
Table 1. Compound-mediated inhibition of topoisomerase I (Topo I) enzymatic activity

in vivo = assay: in vivo
Description: Test Example 3. Pharmacokinetic Study for Determining Compound Concentrations in Mice by LC-MS/MS
Principle: LC-MS/MS is used to quantify the plasma concentrations of the test article at successive time points, generating an in-vivo pharmacokinetic profile.
Procedure: The test compound was dissolved in DMSO to prepare a 10 mg/mL stock solution. This stock was further diluted to 1 mg/mL with a vehicle consisting of 10 % DMSO + 10 % Solutol HS-15 + 80 % saline. Male CD-1 mice (JH Laboratory Animal Co., LTD) were employed; six animals were assigned per compound group. […] Serial blood samples (~50 µL whole blood, K2EDTA anticoagulant) were collected at 0.083, 0.25, 0.5, 1, 2, 4, 8 and 24 h (three mice per time point in a crossover design). Blood was centrifuged at 6 000 g for 5 min at 4 °C; plasma was harvested and stored at -70 °C until analysis. Plasma drug concentrations were determined by LC-MS/MS.
Calibration Curve and QC Preparation: Working solutions were prepared by dilution with MeOH:H2O (1:1). For each calibration or QC level, 3 µL of working solution was spiked into 57 µL of blank mouse plasma.
Sample Processing: To 30 µL of plasma was added 200 µL of methanol containing the internal standard (propranolol, 40 ng mL^-1). After vortex-mixing for 1 min, the mixture was centrifuged at 12 000 rpm for 10 min. A 100 µL aliquot of the supernatant was transferred to a clean plate for injection.
Pharmacokinetic Analysis: Concentration-time data were analyzed with WinNonlin 8.2 using a non-compartmental approach to derive PK parameters including Cmax, Tmax, AUC and terminal elimination half-life (t1/2). AUC was calculated by the linear-up/log-down trapezoidal method. Table 3. Pk parameters of compounds

HCT116 cells = assay: Inhibition of cell proliferation by CTG (CellTiter-Glo) luminescence assay; format: cell-based; details: Homo sapiens, HCT-116; 72 h incubation, CellTiter-Glo; read-out: HCT116, IC50
Excerpt: Test Example 2. Determination of Compound-Mediated Inhibition of Cell Proliferation by CTG (CellTiter-Glo) Luminescence Assay
Principle: The Promega CellTiter-Glo™ luciferase reagent was used. Luciferase consumes ATP to generate light; metabolically active cells continuously produce ATP through respiration and other processes. After adding an equal volume of CellTiter-Glo™ reagent to the culture medium, the resulting luminescence is directly proportional to the ATP content, which in turn correlates with the number of viable cells. Thus, the assay quantifies compound-induced suppression of cell proliferation.
Experimental Procedure: HCT116 cells (ATCC) were revived in complete medium (McCoy's 5a + 10 % FBS). After two passages, exponentially growing cells were harvested, counted, and resuspended to the appropriate density. A 100 µL aliquot of cell suspension (2 000 cells per well) was seeded into 96-well plates and incubated overnight (37 °C, 5 % CO2, 100 % relative humidity). Test compounds were dissolved in DMSO to prepare 10 mM stock solutions and serially diluted 1:3 in DMSO to generate nine concentration steps. Each DMSO solution was further diluted 200-fold into medium; 25 µL of the resulting solutions were added to the cell plates (final DMSO concentration […]). After 72 h incubation (37 °C, 5 % CO2), 50 µL of CellTiter-Glo reagent was added per well. Plates were shaken gently, incubated for 30 min at room temperature in the dark, and luminescence was read on an EnVision multimode reader. Percent inhibition was calculated as: Inhibition % = (1−As/Ac) × 100, [formula] where As = signal from compound-treated wells and Ac = signal from DMSO-only control wells. Concentration-response data were fitted in Excel with the XLfit add-in using the four-parameter logistic equation: Y = Bottom + (Top−Bottom)/[1+((IC50/X))^(∧)HillSlope], [formula] to derive the IC50 value for each compound. Table 2. IC50 of compounds

[1] = male, CD-1, mouse, po, 20 mg/kg
[2] = male, CD-1, mouse, po, 10 mg/kg

In the case of `CC[C@@]1(O)C(=O)OCc2c1cc1n(c2=O)Cc2c-1c(=O)c1cc(F)ccc1n2CCN1CCCC1` [Example 193], the pIC50 (topoisomerase I (Topo I); read-out: inhibition of topoisomerase I (Topo I) enzymatic activity, IC50; 0.75 U Topo I, pNO1 plasmid, 37 °C, 30 min; compounds listed by group (Group A / Group B)) was 6.30 to 6.70.

With `CC[C@@]1(O)C(=O)OCc2c1cc1n(c2=O)Cc2c-1c(=O)c1cc(F)ccc1n2[C@@H]1CCN(CCO)C1` [Example 252, (S)-4-ethyl-8-fluoro-4-hydroxy-11-((R)-1-(2-hydroxyethyl)pyrrolidin-3-yl)-1,12-dihydro-14H-pyrano[3',4':6,7]indolizino[2,1-b]quinoline-3,6,14(4H,11H)-trione] the bioavailability (in vivo; male, CD-1, mouse) was 43.1%, the AUC(0-t) (in vivo; male, CD-1, mouse, iv, 2 mg/kg) was 674 ng·h/mL and the Cmax (in vivo; male, CD-1, mouse, iv, 2 mg/kg) was 558 ng/mL. It also gave a clearance (in vivo; male, CD-1, mouse, iv, 2 mg/kg) of 49.2 mL/min/kg, a half-life (in vivo; male, CD-1, mouse, iv, 2 mg/kg) of 1.17 h and an AUC(0-t) (in vivo; [1]) of 2820 ng·h/mL. For the same molecule, the Cmax (in vivo; [1]) was 680 ng/mL, the Tmax (in vivo; [1]) was 1.33 h and the half-life (in vivo; [1]) was 5.75 h.

In the case of `CC[C@@]1(O)C(=O)OCc2c1cc1n(c2=O)Cc2c-1c(=O)c1cc(F)ccc1n2[C@@H]1CCN(C2CCCC2)C1` [Example 257, (S)-4-ethyl-8-fluoro-4-hydroxy-11-((R)-1-cyclopentylpyrrolidin-3-yl)-1,12-dihydro-14H-pyrano[3',4':6,7]indolizino[2,1-b] quinoline-3,6,14(4H,11H)-trione], the pIC50 (HCT116 cells) was greater than 7.70, the bioavailability (in vivo; male, CD-1, mouse) was 40.2% and the AUC(0-t) (in vivo; male, CD-1, mouse, iv, 1 mg/kg) was 352 ng·h/mL. The Cmax (in vivo; male, CD-1, mouse, iv, 1 mg/kg) was 635 ng/mL, the clearance (in vivo; male, CD-1, mouse, iv, 1 mg/kg) was 47.4 mL/min/kg and the half-life (in vivo; male, CD-1, mouse, iv, 1 mg/kg) was 1.24 h. It also gave an AUC(0-t) (in vivo; [2]) of 1370 ng·h/mL, a Cmax (in vivo; [2]) of 528 ng/mL and a Tmax (in vivo; [2]) of 0.83 h. The half-life (in vivo; [2]) was 7.95 h.

`CC[C@@]1(O)C(=O)OCc2c1cc1n(c2=O)Cc2c-1c(=O)c1cc(F)ccc1n2[C@@H]1CCN(CC2CC2)C1` [Example 259, (S)-11-((R)-1-(cyclopropylmethyl)pyrrolidin-3-yl)-4-ethyl-8-fluoro-4-hydroxy-1H-pyrano[3',4':6,7]indolizino[2,1-b]quinoline-3,6,14(4H,11H,12H)-trione] showed a pIC50 (HCT116 cells) greater than 7.70, a bioavailability (in vivo; male, CD-1, mouse) of 46.6% and an AUC(0-t) (in vivo; male, CD-1, mouse, iv, 1 mg/kg) of 524 ng·h/mL. For the same molecule, the Cmax (in vivo; male, CD-1, mouse, iv, 1 mg/kg) was 497 ng/mL, the clearance (in vivo; male, CD-1, mouse, iv, 1 mg/kg) was 31.8 mL/min/kg and the half-life (in vivo; male, CD-1, mouse, iv, 1 mg/kg) was 0.96 h. The AUC(0-t) (in vivo; [2]) was 2400 ng·h/mL, the Cmax (in vivo; [2]) was 1230 ng/mL and the Tmax (in vivo; [2]) was 0.83 h. It also gave a half-life (in vivo; [2]) of 6.24 h.

In the case of `CC[C@@]1(O)C(=O)OCc2c1cc1n(c2=O)Cc2c-1c(=O)c1cc(F)c(CO)cc1n2C1CCCC1` [Example 291, (S)-11-cyclopentyl-4-ethyl-8-fluoro-4-hydroxy-9-(hydroxymethyl)-1,12-dihydro-14H-pyrano[3,4:6,7]indolizino[2,1-b]quinoline-3,6,14(4H,11H)-trione], the pIC50 (topoisomerase I (Topo I); 0.75 U Topo I, pNO1 plasmid, 37 °C, 30 min; compounds listed by group (Group A / Group B); read-out: inhibition of topoisomerase I (Topo I) enzymatic activity, IC50) was 6.30 to 6.70.

With `CCc1c2c(nc3ccc(O)cc13)-c1cc3c(c(=O)n1C2)COC(=O)[C@]3(O)CC` [SN38] the AUC(0-t) at 24 h (in vivo; mouse, iv, 1 mg/kg) was 103 ng·h/mL, the Cmax (in vivo; mouse, iv, 1 mg/kg) was 278 ng/mL and the clearance (in vivo; mouse, iv, 1 mg/kg) was 163 mL/min/kg. The half-life (in vivo; mouse, iv, 1 mg/kg) was 0.566 h, the AUC(0-t) at 24 h (in vivo; mouse, po, 10 mg/kg) was 0.23 ng·h/mL and the Cmax (in vivo; mouse, po, 10 mg/kg) was 1.87 ng/mL.
